Measurements published in a melting point compilation (Tetko et al.; mined from patent text by program, amines drawn as free bases though some values may be those of a salt).

SMILES	melting point [°C]
O=C(Cl)CCS(=O)(=O)CCCl	73 to 75
O=c1oc2c(c(O)c1C(c1ccccc1)C1CC1)CCCCC2CCC1OCCO1 (stereo not given)	68 to 76
CCOC(=O)c1cc2cc(-c3ccc(OC(F)(F)F)cc3)ccc2n1Cc1ccc(C)cc1	77 to 78
CN(C)c1ccc(C(=O)Nc2ccccc2CCC2CCCCN2C)cc1 (stereo not given)	115 to 116
Cc1cc(C(N)=O)ccc1NC1CCN(Cc2ccccc2)CC1	156 to 158
O=[N+]([O-])c1ccc2c(c1)C(c1ccccc1F)=NCC(OP(=O)(N1CCOCC1)N1CCOCC1)=N2	169 to 172
Cc1c(SCCN2CCCCC2)ccnc1CSc1nc2ccccc2[nH]1	138 to 140
COc1cccc(Cc2ccc(-c3c[nH]nc3N)cc2)c1	118 to 120
CC(C)c1cc(O)cc2c1C(=O)N(CBr)S2(=O)=O	167 to 169
C=CCOc1ccc(Cl)c2oc(Cc3ccc(OC)cc3)c(C)c12	90 to 93
COCOc1cc(Cl)ccc1-c1cc(-c2cccc(C(=O)NCCCn3ccnc3)c2)c(C#N)c(NC(=O)c2ccco2)n1	121 to 122
CC(=O)N1OCC(=O)N(CCl)C1c1ccccc1 (stereo not given)	171 to 172
COc1ccc(C2CNC(=O)C2)cc1I (stereo not given)	158
C=CCc1ccccc1OC[C@@H](O)CNCCc1ccc(NC2CCN(C(=O)NCCCCCCCC)CC2)cc1	73 to 80
Cc1ccc(SCc2ncon2)cc1	53
O=C(O)C1C2C=CC(C2)C1C(F)(F)F (stereo not given)	85 to 90
CC[C@H](CS[C@@H](CCc1ccccc1C(C)(C)O)c1cccc(C=Cc2ccc3ccc(Cl)cc3n2)c1)C(=O)O	115 to 117
N#CCCSCc1csc(=O)[nH]1	108 to 111
CC(O)CCc1ccc(-c2ccccc2F)cc1 (stereo not given)	59 to 60
CC(C)(C)OC(=O)NCCCSc1ccncc1	72 to 74
CC1CCN(c2ccccc2C(C)C(C(N)=O)c2ccc(C(=O)O)cc2)CC1 (stereo not given)	173 to 175
COC(=O)C(Cl)Cc1cc(F)c(-n2c(=O)cc(C(F)(F)F)n(C)c2=O)cc1[N+](=O)[O-] (stereo not given)	60 to 65
CC(C)(C)OC(=O)N1CCNC(=O)C1Sc1ccccc1 (stereo not given)	138 to 140
O=C(NC1C(=O)N(CCCO)c2ccccc2N(c2ccccc2)C1=O)Oc1ccccc1 (stereo not given)	203 to 204
COC(=O)CCc1nc(C=O)ccc1O	92 to 95

SMILES	melting point [°C]
CCOC(=O)c1[nH]c(C)c(C)c1OCCCCl	60 to 63
NCc1ccccc1C(F)(F)C(F)(F)c1ccc(F)cc1	64 to 66
O=C(O)CCC(=O)NNc1ccnc2c(NC(=O)c3c(Cl)cccc3Cl)cccc12	166 to 170
NC(=O)c1ccc(CCCNCC(O)COc2ccccc2)s1 (racemic)	129 to 130
C=Cc1cc(CNC(=O)NCc2ccc(C(C)(C)C)cc2)cc(C(F)(F)F)c1NS(C)(=O)=O	134 to 136
Cc1cnc2cc(NS(=O)(=O)c3cccc(Cl)c3C)ccc2n1	159
COC(=O)N[C@H](C(=O)NC(Cc1ccccc1)C(O)CNCC(O)[C@@H](Cc1ccc(OCCc2ccccn2)cc1)NC(=O)OC(C)(C)C)C(C)(C)C (relative stereo)	139 to 141
CC(C)(C)CNc1nc(-c2[nH]c(C(C)(C)C)nc2-c2ccccc2)ccc1[N+](=O)[O-]	224 to 226
O=C1NCCc2ccc(OCCCCN3CCCN(c4cccc(Cl)c4Cl)CC3)cc21	86 to 88
C[C@@]1(c2ccccc2)OC(c2ccccc2)=NC[C@H]1O (racemic)	130
O=c1c2ccc(Cl)cc2[nH]c2c(O)nn(CCN3CCN(c4ccccc4)CC3)c(=O)c12	361 to 364
CC(C)(C)OC(=O)CNC(=O)c1nc2cc(Cl)ccc2o1	152 to 154
Cc1ccc(N2CCN(Cc3ccc4c(c3)NCCN4)CC2)cc1C	148 to 149
CC(C)(C)OC(=O)N1CCN(Cc2nc(-c3cc(C(C)(C)C)c(O)c(C(C)(C)C)c3)cs2)CC1	108 to 109
CC(=O)c1ccc(-c2ccccc2[N+](=O)[O-])cc1	106 to 109
COC(=O)N(C)CCc1ccc2[nH]c(C)c(S(=O)(=O)c3ccccc3)c2c1	188 to 191
COC(=O)c1cc(I)ccc1N(C)S(C)(=O)=O	105 to 106
NS(=O)(=O)c1ccc(-c2oc(C(F)(F)F)nc2-c2ccccc2)cc1	137 to 138
CC12CCC(O)CC1=CCC1C2CCC2(C)C(n3ccnc3)=CCC12 (stereo not given)	220 to 223
CC#CCOc1ccc(S(=O)C(C(=O)NO)c2ccc3ccccc3c2)cc1 (stereo not given)	157
CCCCC1(N(C)C)CCC2(CC1)c1[nH]c3ccccc3c1CCN2C(=O)NCC (stereo not given)	182 to 184
CC1CN(Cc2ccccc2)CC1=NO (stereo not given)	85 to 94
CC(=O)CCc1cc(F)c2ncc(C(=O)NCc3ccc(Cl)cc3)c(O)c2c1	218 to 222
COc1c(OCc2ccccc2)cnc(CO)c1C	70 to 73
O=C(CCc1cc2ccccc2s1)N1C(=O)OC[C@@H]1Cc1ccccc1	119 to 122
